From ChEMBL document CHEMBL5344441, “Discovery and Preclinical Pharmacology of NX-2127, an Orally Bioavailable Degrader of Bruton's Tyrosine Kinase with Immunomodulatory Activity for the Treatment of Patients with B Cell Malignancies” (J Med Chem, 2024)
Activity calls are given as the source filed them. The calls are words filed in the database; no cut-off is given here.

What was measured:
[1] = target: Protein cereblon/Tyrosine-protein kinase BTK (Homo sapiens, UniProt Q06187+Q96SW2); experiment: PROTAC activity at CRBN/BTK in human TMD8 cells assessed as degradation of BTK protein incubated for 4 hrs by HTRF assay; type: cell-based
[2] = target: T1, Protein cereblon/Tyrosine-protein kinase BTK (Mus musculus) (UniProt P35991+Q8C7D2); experiment: In vivo protac activity at CRBN/BTK in CD-1 mouse assessed as remaining BTK protein in blood at 30 mg/kg,po administration measured after 24 hrs by flow cytomtery relative to control; type: functional, organism-based
T1 sequence (P35991 whole entry, looked up): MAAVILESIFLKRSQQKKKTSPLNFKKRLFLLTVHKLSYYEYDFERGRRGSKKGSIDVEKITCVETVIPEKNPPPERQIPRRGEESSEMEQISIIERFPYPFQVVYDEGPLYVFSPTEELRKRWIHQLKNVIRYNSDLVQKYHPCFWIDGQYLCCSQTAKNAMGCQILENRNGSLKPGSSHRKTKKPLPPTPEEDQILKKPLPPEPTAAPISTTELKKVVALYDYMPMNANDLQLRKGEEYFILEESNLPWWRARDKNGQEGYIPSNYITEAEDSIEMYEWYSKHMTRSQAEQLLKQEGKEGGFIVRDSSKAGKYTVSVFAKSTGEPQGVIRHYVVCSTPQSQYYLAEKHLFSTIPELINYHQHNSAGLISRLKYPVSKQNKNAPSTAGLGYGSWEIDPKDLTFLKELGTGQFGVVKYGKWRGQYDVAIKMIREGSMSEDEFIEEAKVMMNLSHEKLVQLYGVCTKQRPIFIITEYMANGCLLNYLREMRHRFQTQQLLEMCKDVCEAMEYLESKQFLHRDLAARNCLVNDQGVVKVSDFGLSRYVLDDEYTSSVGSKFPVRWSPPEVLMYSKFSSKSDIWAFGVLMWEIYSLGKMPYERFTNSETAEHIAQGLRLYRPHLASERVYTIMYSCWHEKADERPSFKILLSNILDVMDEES
T1 sequence (Q8C7D2 whole entry, looked up): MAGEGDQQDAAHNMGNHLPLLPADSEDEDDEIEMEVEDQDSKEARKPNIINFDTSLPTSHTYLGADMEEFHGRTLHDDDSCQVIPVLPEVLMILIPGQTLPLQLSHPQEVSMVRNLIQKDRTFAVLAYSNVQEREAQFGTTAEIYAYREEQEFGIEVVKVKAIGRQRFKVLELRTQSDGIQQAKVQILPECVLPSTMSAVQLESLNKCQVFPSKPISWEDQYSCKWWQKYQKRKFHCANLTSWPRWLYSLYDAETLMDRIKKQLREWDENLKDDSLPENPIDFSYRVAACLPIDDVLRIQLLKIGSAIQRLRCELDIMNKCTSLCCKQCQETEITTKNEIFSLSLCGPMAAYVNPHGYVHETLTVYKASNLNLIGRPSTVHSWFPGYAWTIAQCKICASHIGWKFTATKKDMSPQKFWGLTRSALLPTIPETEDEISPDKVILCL

[3] = Plasma protein binding in mouse; type: ADME, cell-free; details: read-out: PPB
[4] = Plasma protein binding in rat; type: ADME, cell-free; details: read-out: PPB
[5] = Plasma protein binding in human; type: ADME, cell-free; details: read-out: PPB (converted)
[6] = Observed clearance in mouse at 1 mg/kg,iv; type: ADME, organism-based; details: in vivo
[7] = Observed clearance in rat at 1 mg/kg,iv; type: ADME, organism-based; details: in vivo
[8] = Observed clearance in cynomolgus monkey at 1 mg/kg,iv; type: ADME, organism-based, Macaca fascicularis; details: in vivo
[9] = AUC in cynomolgus monkey at 10 mg/kg,po; type: ADME, organism-based, Macaca fascicularis; parameters: dose 10 mg/kg, route po; details: in vivo
[10] = Cmax in rat at 10 mg/kg,po; type: ADME, organism-based; parameters: dose 10 mg/kg, route po; details: in vivo
[11] = Cmax in dog at 10 mg/kg,po; type: ADME, organism-based, Canis lupus familiaris; parameters: dose 10 mg/kg, route po; details: in vivo
[12] = Cmax in cynomolgus monkey at 10 mg/kg,po; type: ADME, organism-based, Macaca fascicularis; parameters: dose 10 mg/kg, route po; details: in vivo
[13] = target: T1, Protein cereblon/Tyrosine-protein kinase BTK (Mus musculus); experiment: In vivo protac activity at CRBN/BTK in mouse assessed as remaining BTK protein at 10 mg/kg,po administration measured after 24 hrs by flow cytomtery relative to control; type: functional, organism-based
[14] = target: Protein cereblon-BTK (Canis lupus familiaris) (UniProt A0A8I3NIQ5+A0A8I3P7Z3); experiment: In vivo protac activity at CRBN/BTK in Beagle dog assessed as remaining BTK protein at 10 mg/kg,po administration measured after 24 hrs by flow cytomtery relative to control; type: functional, organism-based
Chain of Protein cereblon-BTK (Canis lupus familiaris) (A0A8I3NIQ5 1-444): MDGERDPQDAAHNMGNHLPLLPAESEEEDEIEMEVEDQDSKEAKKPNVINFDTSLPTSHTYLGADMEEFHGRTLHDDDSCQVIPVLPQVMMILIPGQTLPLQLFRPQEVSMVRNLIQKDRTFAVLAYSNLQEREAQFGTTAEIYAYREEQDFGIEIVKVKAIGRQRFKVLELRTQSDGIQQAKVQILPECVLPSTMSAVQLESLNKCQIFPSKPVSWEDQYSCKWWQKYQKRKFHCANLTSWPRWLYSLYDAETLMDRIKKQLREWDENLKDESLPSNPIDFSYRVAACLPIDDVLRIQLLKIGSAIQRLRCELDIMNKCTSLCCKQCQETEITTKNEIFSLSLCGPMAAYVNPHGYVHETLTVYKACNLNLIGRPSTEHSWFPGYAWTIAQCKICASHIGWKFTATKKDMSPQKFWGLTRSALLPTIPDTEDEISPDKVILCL
Chain of Protein cereblon-BTK (Canis lupus familiaris) (A0A8I3P7Z3 entry or part of it partner): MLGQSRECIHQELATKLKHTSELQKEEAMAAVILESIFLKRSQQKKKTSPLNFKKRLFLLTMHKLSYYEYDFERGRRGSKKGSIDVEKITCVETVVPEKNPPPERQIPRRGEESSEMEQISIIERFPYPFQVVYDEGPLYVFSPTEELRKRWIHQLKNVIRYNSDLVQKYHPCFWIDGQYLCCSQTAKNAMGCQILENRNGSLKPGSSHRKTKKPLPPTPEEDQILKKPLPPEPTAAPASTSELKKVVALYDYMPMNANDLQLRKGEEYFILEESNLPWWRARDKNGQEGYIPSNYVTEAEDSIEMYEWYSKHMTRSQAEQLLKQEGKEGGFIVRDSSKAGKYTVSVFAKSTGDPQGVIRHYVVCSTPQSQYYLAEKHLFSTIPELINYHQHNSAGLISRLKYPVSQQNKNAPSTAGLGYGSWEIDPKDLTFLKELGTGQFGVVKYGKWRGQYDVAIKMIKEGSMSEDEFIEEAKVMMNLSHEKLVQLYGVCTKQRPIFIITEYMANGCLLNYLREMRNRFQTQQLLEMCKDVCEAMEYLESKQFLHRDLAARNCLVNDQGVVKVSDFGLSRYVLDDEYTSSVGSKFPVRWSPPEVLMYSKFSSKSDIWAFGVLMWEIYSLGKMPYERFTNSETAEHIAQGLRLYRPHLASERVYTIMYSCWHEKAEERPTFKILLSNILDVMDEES

[15] = target: T2, Protein cereblon-BTK (Macaca fascicularis) (UniProt A0A2K5UTB3+A0A7N9IGT8); experiment: In vivo protac activity at CRBN/BTK in cynomolgus monkey assessed as remaining BTK protein at 10 mg/kg,po administration measured after 24 hrs by flow cytomtery relative to control; type: functional, organism-based
T2 sequence (A0A2K5UTB3 1-488): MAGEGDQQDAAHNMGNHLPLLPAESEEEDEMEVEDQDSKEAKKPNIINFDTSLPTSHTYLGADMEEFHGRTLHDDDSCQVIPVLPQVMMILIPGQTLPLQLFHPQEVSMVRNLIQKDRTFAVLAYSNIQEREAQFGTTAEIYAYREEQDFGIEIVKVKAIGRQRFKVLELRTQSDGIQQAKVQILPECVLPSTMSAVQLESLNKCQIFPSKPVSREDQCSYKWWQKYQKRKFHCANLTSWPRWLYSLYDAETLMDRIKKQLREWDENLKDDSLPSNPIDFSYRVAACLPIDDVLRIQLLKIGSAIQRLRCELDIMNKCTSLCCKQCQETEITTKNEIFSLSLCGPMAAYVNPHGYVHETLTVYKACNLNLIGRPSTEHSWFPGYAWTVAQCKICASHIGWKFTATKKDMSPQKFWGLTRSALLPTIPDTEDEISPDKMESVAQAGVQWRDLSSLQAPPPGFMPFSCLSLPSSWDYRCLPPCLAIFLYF
T2 sequence (A0A7N9IGT8 entry or part of it partner): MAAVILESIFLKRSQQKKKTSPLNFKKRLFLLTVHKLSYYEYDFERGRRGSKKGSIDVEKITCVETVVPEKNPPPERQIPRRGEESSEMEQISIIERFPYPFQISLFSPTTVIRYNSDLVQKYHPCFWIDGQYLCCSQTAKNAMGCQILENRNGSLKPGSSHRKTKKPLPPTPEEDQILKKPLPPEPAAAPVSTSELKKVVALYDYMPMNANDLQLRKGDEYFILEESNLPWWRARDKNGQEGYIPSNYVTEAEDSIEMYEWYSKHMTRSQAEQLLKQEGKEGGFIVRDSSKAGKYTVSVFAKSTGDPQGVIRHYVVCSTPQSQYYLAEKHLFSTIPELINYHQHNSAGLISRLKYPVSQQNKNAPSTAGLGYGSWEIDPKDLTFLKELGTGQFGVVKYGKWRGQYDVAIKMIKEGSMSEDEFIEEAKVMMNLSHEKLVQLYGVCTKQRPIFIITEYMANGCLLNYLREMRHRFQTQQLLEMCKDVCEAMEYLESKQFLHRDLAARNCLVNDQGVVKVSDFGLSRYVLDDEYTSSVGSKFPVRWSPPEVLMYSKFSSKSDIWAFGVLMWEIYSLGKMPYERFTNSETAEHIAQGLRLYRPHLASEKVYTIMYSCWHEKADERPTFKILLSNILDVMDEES

[16] = Drug uptake in cynomolgus monkey plasma at po administration measured for 24 hrs; type: ADME, organism-based, Macaca fascicularis; details: in vivo
[17] = Cmax in cynomolgus monkey at 10 mg/kg,po administration for 1 day; type: ADME, organism-based, Macaca fascicularis; parameters: time 1 day, dose 10 mg/kg, route po; details: in vivo, 24 h
[18] = AUClast in cynomolgus monkey at 10 mg/kg,po administration for 1 day; type: ADME, organism-based, Macaca fascicularis; parameters: dose 10 mg/kg, time 1 day, route po; details: in vivo
[19] = target: T2, Protein cereblon-BTK (Macaca fascicularis); experiment: In vivo protac activity at CRBN/BTK in cynomolgus monkey assessed as remaining BTK protein in B cells at 10 mg/kg,po administration for 1 day by flow cytomtery relative to control; type: functional, organism-based
[20] = target: T2, Protein cereblon-BTK (Macaca fascicularis); experiment: In vivo protac activity at CRBN/BTK in cynomolgus monkey assessed as remaining BTK protein in B cells at 30 mg/kg,po administration for 1 day by flow cytomtery relative to control; type: functional, organism-based
[21] = target: T2, Protein cereblon-BTK (Macaca fascicularis); experiment: In vivo protac activity at CRBN/BTK in cynomolgus monkey assessed as remaining BTK protein in B cells at 10 to 100 mg/kg,po administration for 14 days by flow cytomtery relative to control; type: functional, organism-based; details: dose 10-100 mg/kg, time 14.0 day
[22] = target: T3, Protein cereblon/Zinc finger protein Aiolos (Macaca fascicularis) (UniProt A0A2K5UTB3+A0A2K5VJM3); experiment: In vivo protac activity at CRBN/IKZF3 in cynomolgus monkey assessed as degradation of IKZF3 protein at 30 mg/kg,po administration for 14 days by flow cytomtery relative to control; type: functional, organism-based; details: time 14.0 day
T3 sequence (A0A2K5UTB3 1-488): as the sequence (A0A2K5UTB3 1-488) above
T3 sequence (A0A2K5VJM3 entry or part of it partner): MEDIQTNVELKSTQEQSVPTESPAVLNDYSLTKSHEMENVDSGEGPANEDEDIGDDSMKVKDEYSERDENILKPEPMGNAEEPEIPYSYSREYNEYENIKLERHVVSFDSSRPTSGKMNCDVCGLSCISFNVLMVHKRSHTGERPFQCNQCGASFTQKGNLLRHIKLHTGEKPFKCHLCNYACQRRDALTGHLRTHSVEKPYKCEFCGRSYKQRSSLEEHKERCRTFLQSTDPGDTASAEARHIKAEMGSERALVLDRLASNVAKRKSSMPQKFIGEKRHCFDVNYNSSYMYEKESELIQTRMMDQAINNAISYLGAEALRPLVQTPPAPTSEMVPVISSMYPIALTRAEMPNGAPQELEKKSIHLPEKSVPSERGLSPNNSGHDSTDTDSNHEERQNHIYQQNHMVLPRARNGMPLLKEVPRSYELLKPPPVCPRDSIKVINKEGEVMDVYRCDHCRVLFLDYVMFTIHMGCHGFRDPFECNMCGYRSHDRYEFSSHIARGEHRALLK

[23] = target: T3, Protein cereblon/Zinc finger protein Aiolos (Macaca fascicularis); experiment: In vivo protac activity at CRBN/IKZF3 in cynomolgus monkey assessed as degradation of IKZF3 protein at 100 mg/kg,po administration for 14 days by flow cytomtery relative to control; type: functional, organism-based; details: time 14.0 day
[24] = target: T1, Protein cereblon/Tyrosine-protein kinase BTK (Mus musculus); experiment: In vivo protac activity at CRBN/BTK in CB17-SCID mouse assessed as degradation of BTK protein in B cells at 10 to 90 mg/kg,po administration for 25 days by flow cytomtery; type: functional, organism-based; details: dose 10-90 mg/kg, time 25.0 day
[25] = target: Cereblon/Ikaros (Homo sapiens, UniProt Q96SW2+Q13422); experiment: In vivo protac activity at CRBN/IKZF1 in CB17-SCID mouse xenografted with human TMD8 cells assessed as degradation of IKZF1 protein in tumor at 10 to 90 mg/kg,po administration for 25 days by flow cytomtery; type: functional, organism-based; details: dose 10-90 mg/kg, time 25.0 day
[26] = system: TMD8; experiment: Antitumor activity against human TMD8 cells expressing wild type BTK xenografted in CB17-SCID mouse assessed as tumor growth inhibition at 90 mg/kg,po administration for 25 days; type: functional; details: TMD8, 600 h, time 25 day, read-out: TGI
[27] = target: Cytochrome P450 3A4 (Homo sapiens, UniProt P08684); experiment: Inhibition of CYP3A4 (unknown origin); type: ADME
[28] = target: Cytochrome P450 2C9 (Homo sapiens, UniProt P11712); experiment: Inhibition of CYP2C9 (unknown origin); type: ADME
[29] = target: Tyrosine-protein kinase BTK (Homo sapiens, UniProt Q06187, C481S); experiment: Binding affinity to BTK C481S mutant (unknown origin) assessed as dissociation constant by surface plasmon resonance assay
Chain of Tyrosine-protein kinase BTK (Q06187 2-659 C481S limits assumed): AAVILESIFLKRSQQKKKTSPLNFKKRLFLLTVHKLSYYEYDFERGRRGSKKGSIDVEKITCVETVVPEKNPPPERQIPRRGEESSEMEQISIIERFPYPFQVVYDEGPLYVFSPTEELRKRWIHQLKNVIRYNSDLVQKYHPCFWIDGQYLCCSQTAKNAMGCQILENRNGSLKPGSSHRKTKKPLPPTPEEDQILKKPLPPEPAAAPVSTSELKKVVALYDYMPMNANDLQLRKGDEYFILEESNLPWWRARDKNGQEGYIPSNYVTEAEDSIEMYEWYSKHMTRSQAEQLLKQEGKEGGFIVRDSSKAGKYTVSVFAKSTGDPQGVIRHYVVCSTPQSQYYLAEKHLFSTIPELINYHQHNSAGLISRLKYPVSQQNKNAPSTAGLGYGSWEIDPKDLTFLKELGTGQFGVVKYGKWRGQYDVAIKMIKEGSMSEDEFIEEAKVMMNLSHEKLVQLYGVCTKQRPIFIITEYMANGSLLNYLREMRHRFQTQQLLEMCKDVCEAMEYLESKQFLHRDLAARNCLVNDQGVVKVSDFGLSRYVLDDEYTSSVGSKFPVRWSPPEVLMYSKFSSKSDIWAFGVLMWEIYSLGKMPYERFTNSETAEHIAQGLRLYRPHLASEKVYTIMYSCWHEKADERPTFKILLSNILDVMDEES

[30] = target: T1, Protein cereblon/Tyrosine-protein kinase BTK (Mus musculus); experiment: In vivo protac activity at CRBN/BTK in BALB/c mouse assessed as residual BTK protein in blood at 3 mg/kg,po administration measured after 24 hrs by flow cytomtery relative to control
[31] = target: T1, Protein cereblon/Tyrosine-protein kinase BTK (Mus musculus); experiment: In vivo protac activity at CRBN/BTK in BALB/c mouse assessed as residual BTK protein in blood at 10 mg/kg,po administration measured after 24 hrs by flow cytomtery relative to control
[32] = target: T1, Protein cereblon/Tyrosine-protein kinase BTK (Mus musculus); experiment: In vivo protac activity at CRBN/BTK in BALB/c mouse assessed as residual BTK protein in blood at 30 mg/kg,po administration measured after 24 hrs by flow cytomtery relative to control

`NC(=O)c1ncc(N2CCCCC2)nc1Nc1ccc(C2CCN(C[C@H]3CCN(c4ccc5c(c4)C(=O)N(C4CCC(=O)NC4=O)C5=O)C3)CC2)cc1` (some centres not stated) [ZELEBRUDOMIDE] gave a DC50 [1] of 4.5 nM, an Activity [2] of 11% and a fraction unbound [3] of under 0.015. The fraction unbound [4] was under 0.015, the fraction unbound [5] was 0.063 and the clearance [6] was 5.2 mL/min/kg. The clearance [7] was 19 mL/min/kg, the clearance [8] was 22.2 mL/min/kg and the AUC [9] was 0.09 µM·h. It also gave a Cmax [10] of 67 nM, a Cmax [11] of 31 nM and a Cmax [12] of 11 nM. For the same compound, the Activity [13] was 21%, the Activity [14] was 17% and the Activity [15] was 10%. For the same compound, the Drug uptake [16] was “Dose-Dependent Effect”, the Cmax [17] was 26.9 ng/mL and the AUC(0-t) at 24 h [18] was 267 ng·h/mL. The Activity [19] was 11%, the Activity [20] was 9% and the Activity [21] was under 10%. The Activity [22] was 55%, the Activity [23] was 43% and the Activity [24] was “Active”. The Activity [25] was “Active”, the inhibition in vivo at 90 mg/kg [26] was 99% and the IC50 [27] was over 30000 nM. It also gave an IC50 [28] of over 30000 nM, a Kd [29] of 18 nM and a residual activity [30] of 36%. It also gave a residual activity [31] of 21% and a residual activity [32] of 12%.
